In ChEMBL document CHEMBL1159138, “Antibacterial evaluation of novel N-Arylimino-1,2,3-dithiazoles and N-arylcyanothioformamides” (1996):
In brackets after ≈: the same amount, converted by molar mass. Activity calls are given as the source filed them. No cut-off for these calls is given here.

Experiments:
Enterococcus faecalis [1] = experiment: Antibacterial activity was determined against gram positive bacteria - Enterococcus faecalis (ATCC 29212); Inactive; assay type: functional, organism-based
Listeria monocytogenes [2] = experiment: Antibacterial activity was determined against gram positive bacteria - Listeria monocytogenes (CIP 82110T); Inactive; assay type: functional, organism-based
Streptococcus pyogenes [3] = experiment: Antibacterial activity was determined against gram positive bacteria - Streptococcus pyogenes(ATCC 19165); Inactive; assay type: functional, organism-based
Staphylococcus aureus [4] = experiment: Antibacterial activity was determined against gram positive bacteria - Staphylococcus aureus(ATCC 9144); Inactive; assay type: functional, organism-based
Staphylococcus aureus [5] = experiment: Antibacterial activity was determined against gram positive bacteria - Staphylococcus aureus(ATCC 9144); assay type: functional
Listeria monocytogenes [6] = experiment: Minimum inhibitory concentration against Listeria monocytogenes (CIP 82110T) was determined using broth dilution method.; assay type: functional
Listeria monocytogenes [7] = experiment: Antibacterial activity was determined against gram positive bacteria - Listeria monocytogenes (CIP 82110T); assay type: functional
Streptococcus pyogenes [8] = experiment: Antibacterial activity was determined against gram positive bacteria - Streptococcus pyogenes(ATCC 19165); assay type: functional
Staphylococcus aureus [9] = experiment: Minimum inhibitory concentration against Staphylococcus aureus(ATCC 9144) was determined using broth dilution method.; assay type: functional
Enterococcus faecalis [10] = experiment: Minimum inhibitory concentration against Enterococcus faecalis (ATCC 29212) was determined using broth dilution method.; assay type: functional
Streptococcus pyogenes [11] = experiment: Minimum inhibitory concentration against Streptococcus pyogenes(ATCC 19165) was determined using broth dilution method.; assay type: functional
Enterococcus faecalis [12] = experiment: Antibacterial activity was determined against gram positive bacteria - Enterococcus faecalis (ATCC 29212).; assay type: functional

| MIC (Listeria monocytogenes [6]) [µg/mL] | MIC (Staphylococcus aureus [9]) [µg/mL] | MIC (Enterococcus faecalis [10]) [µg/mL] | MIC (Streptococcus pyogenes [11]) [µg/mL] | SMILES | Zone diameter (Enterococcus faecalis [1]) | Zone diameter (Listeria monocytogenes [2]) | Zone diameter (Streptococcus pyogenes [3]) | Zone diameter (Staphylococcus aureus [4]) | Zone diameter (Staphylococcus aureus [5]) [mm] | Zone diameter (Listeria monocytogenes [7]) [mm] | Zone diameter (Streptococcus pyogenes [8]) [mm] | Zone diameter (Enterococcus faecalis [12]) [mm] |
| --- | --- | --- | --- | --- | --- | --- | --- | --- | --- | --- | --- | --- |
|  |  |  |  | N#CC(=S)Nc1ccccc1 | inactive | inactive | inactive | inactive |  |  |  |  |
| 32 (≈ 92.3 µM) | 32 (≈ 92.3 µM) | 32 (≈ 92.3 µM) | 32 (≈ 92.3 µM) | COC(=O)c1cc(OC)c(OC)cc1/N=c1\ssnc1Cl |  |  |  |  | 17 | 17 | 14 | 14 |
|  |  |  |  | COC(=O)c1cc(OC)c(OC)cc1/N=C(/S)C#N | inactive | inactive | inactive | inactive |  |  |  |  |
| 32 (≈ 124 µM) | 32 (≈ 124 µM) | 32 (≈ 124 µM) | 32 (≈ 124 µM) | COc1ccc(/N=c2\ssnc2Cl)cc1 |  |  |  |  | 17 | 15 | 15 | 14 |
| 32 (≈ 112 µM) | 32 (≈ 112 µM) | 32 (≈ 112 µM) | 32 (≈ 112 µM) | COC(=O)c1ccccc1/N=c1\ssnc1Cl |  |  |  |  | 18 | 17 | 18 | 16 |
|  |  |  |  | COc1cc(C#N)c(/N=C(/S)C#N)cc1OC | inactive | inactive | inactive | inactive |  |  |  |  |
| 32 (≈ 112 µM) | 32 (≈ 112 µM) | 32 (≈ 112 µM) | 32 (≈ 112 µM) | Clc1nss/c1=N\c1ccc2c(c1)OCCO2 |  |  |  |  | 12 | 10 | 11 | 10 |
|  |  |  |  | COc1cc(NC(=S)C#N)cc(OC)c1OC | inactive | inactive | inactive | inactive |  |  |  |  |
|  |  |  |  | COc1ccccc1/N=C(/S)C#N | inactive | inactive | inactive | inactive |  |  |  |  |
|  |  |  |  | COc1ccc(NC(=S)C#N)cc1 | inactive | inactive | inactive | inactive |  |  |  |  |
| 32 (≈ 102 µM) | 32 (≈ 102 µM) | 32 (≈ 102 µM) | 32 (≈ 102 µM) | COc1cc(C#N)c(/N=c2\ssnc2Cl)cc1OC |  |  |  |  | 10 | 10 | 13 | 10 |
|  |  |  |  | N#CC(=S)Nc1ccccc1C#N | inactive | inactive | inactive | inactive |  |  |  |  |
| 16 (≈ 61.8 µM) | 32 (≈ 124 µM) | 16 (≈ 61.8 µM) | 32 (≈ 124 µM) | COc1ccccc1/N=c1\ssnc1Cl |  |  |  |  | 20 | 21 | 22 | 17 |
|  |  |  |  | N#CC(=S)Nc1ccc2c(c1)OCCO2 | inactive | inactive | inactive | inactive |  |  |  |  |
| 16 (≈ 70 µM) | 16 (≈ 70 µM) | 16 (≈ 70 µM) | 32 (≈ 140 µM) | Clc1nss/c1=N\c1ccccc1 |  |  |  |  | 29 | 27 | 26 | 19 |
|  |  |  |  | COc1ccc(NC(=S)C#N)cc1OC | inactive | inactive | inactive | inactive |  |  |  |  |
| 32 (≈ 111 µM) | 32 (≈ 111 µM) | 32 (≈ 111 µM) | 32 (≈ 111 µM) | COc1ccc(/N=c2\ssnc2Cl)cc1OC |  |  |  |  | 13 | 12 | 16 | 13 |
| 32 (≈ 100 µM) | 32 (≈ 100 µM) | 32 (≈ 100 µM) | 32 (≈ 100 µM) | COc1cc(/N=c2\ssnc2Cl)cc(OC)c1OC |  |  |  |  | 13 | 17 | 16 | 10 |
| 32 (≈ 126 µM) | 32 (≈ 126 µM) | 32 (≈ 126 µM) | 32 (≈ 126 µM) | N#Cc1ccccc1/N=c1\ssnc1Cl |  |  |  |  | 11 | 11 | 15 | 11 |
|  |  |  |  | COC(=O)c1ccccc1/N=C(/S)C#N | inactive | inactive | inactive | inactive |  |  |  |  |
